The test has as its target T1, Bcl-2 protein (Recombinant Human Bcl-2 Protein) (Homo sapiens, UniProt P10415).
T1 construct: purchased Novus NBP2-34889
As to the kind of experiment: Binding evaluation of mixture library compounds to Bcl-2 using AS-MS (affinity selection mass spectrometry). To be noted: for ASMS ratio (%) n = 1 / ASMS ratio (%) n = 2: ASMS Ratio(%)=(A−C)/B×100; for ASMS ratio (%) n = 1: replicate n = 1; for ASMS ratio (%) n = 2: replicate n = 2. The method in brief: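 Readout is ASMS Ratio (%), (A−C)/B×100, from reversed-phase LC/MS of SEC-passed extracts, with protein-free unfiltered standard (B) and protein-free SEC blank (C). Recombinant human Bcl-2 at 20 μM final met ~1200 pooled compounds at […] each for 1 h, 23° C., dark, in Tris-HCl pH 7.4 buffer.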

The mark [1] stands for this setting: AS-MS, mixture of 1200 compounds, Bcl-2.
The mark [2] stands for this setting: AS-MS on the mixture of 1200 library compounds.

From patent US20240132431A1, “METHOD FOR ALKYLATING ACIDIC FUNCTIONAL GROUP” (Chugai Seiyaku Kabushiki Kaisha, priority 2021, published 2024) come the findings set out here.

T1 sequence (P10415 whole entry): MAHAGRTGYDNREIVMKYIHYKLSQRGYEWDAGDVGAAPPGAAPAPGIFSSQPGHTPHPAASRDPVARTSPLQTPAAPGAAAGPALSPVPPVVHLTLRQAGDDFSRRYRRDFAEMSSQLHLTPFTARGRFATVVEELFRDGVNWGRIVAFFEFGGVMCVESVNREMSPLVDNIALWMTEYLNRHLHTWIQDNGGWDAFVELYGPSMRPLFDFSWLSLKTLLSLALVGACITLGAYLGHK

On to “4-[4-[4-(5-Ethoxypyridin-3-yl)-3-methylbenzoyl]piperazin-1-yl]-N-propylbenzamide [B1M039-01]”, for which, under setting [1], the “ASMS ratio (%) n = 1” value is on record as 2.3% and the “ASMS ratio (%) n = 2” value is −0.6%.
On to `CCOc1cccc(-c2csc(C(=O)N3CCN(c4ccc(C(=O)NS(=O)(=O)CCC(F)(F)F)nn4)CC3)c2)c1` [B2N001-01, 6-[4-[4-(3-Ethoxyphenyl)thiophene-2-carbonyl]piperazin-1-yl]-N-(3,3,3-trifluoropropylsulfonyl)pyridazine-3-carboxamide], for which the “ASMS ratio (%)” value (n = 2) is given as 0.0%.
Consider `CCOc1cccc(-c2ccc(C(=O)N3CCN(c4ccc(C(=O)NS(=O)(=O)C(C)(C)C)nn4)CC3)cc2C)c1` [B2L003-01, N-tert-Butylsulfonyl-6-[4-[4-(3-ethoxyphenyl)-3-methylbenzoyl]piperazin-1-yl]pyridazine-3-carboxamide], for which the “ASMS ratio (%)” value was determined as 0.0% (n = 1) and 0.0% (n = 2).
In the case of `CCOc1cccc(-c2ccc(CN3CCN(c4ccc(C(=O)NS(=O)(=O)CCC(F)(F)F)cc4)CC3)c3ccccc23)c1` [B2N065-01], the “ASMS ratio (%)” value is, setting by setting: (n = 1) 0.0%; (n = 2) 0.0%.
In the case of `CCOc1cccc(C#Cc2cncc(C(=O)N3CCN(c4ccc(C(=O)N(CC)CC)cc4)CC3)c2)c1` [B4J031-01, 4-[4-[5-[2-(3-Ethoxyphenyl)ethynyl]pyridine-3-carbonyl]piperazin-1-yl]-N,N-diethylbenzamide], under setting [2], the “ASMS ratio (%) n = 1” value was 0.1% and the “ASMS ratio (%) n = 2” value came to 0.8%.
For the compound `CCOc1cncc(C#Cc2ccccc2C(=O)N2CCN(c3ccc(C(=O)NS(=O)(=O)c4ccc(NCCSc5ccccc5)c(C(F)(F)F)c4)nn3)CC2)c1` [B2R008-01, 6-[4-[2-[2-(5-Ethoxypyridin-3-yl)ethynyl]benzoyl]piperazin-1-yl]-N-[4-(2-phenylsulfanylethylamino)-3-(trifluoromethyl)phenyl]sulfonylpyridazine-3-carboxamide], the “ASMS ratio (%)” value runs as follows: (n = 1) 0.0%; (n = 2) 19.5%.
Regarding `CCOc1cncc(-c2ccc(CN3CCN(c4ccc(C(=O)NCC(F)(F)F)nn4)CC3)cc2C)c1` [B1K074-01, 6-[4-[[4-(5-Ethoxypyridin-3-yl)-3-methylphenyl]methyl]piperazin-1-yl]-N-(2,2,2-trifluoroethyl)pyridazine-3-carboxamide], under setting [1], the “ASMS ratio (%) n = 1” value is 0.0% and the “ASMS ratio (%) n = 2” value is on record as 0.0%.
As for `CCOc1cccc(-c2ccc(C(=O)N3CCN(c4ccc(C(=O)NCC56CC7CC(CC(C7)C5)C6)cc4)CC3)cc2C)c1` [B1A025-01, N-(1-Adamantylmethyl)-4-[4-[4-(3-ethoxyphenyl)-3-methylbenzoyl]piperazin-1-yl]benzamide], under setting [1], the “ASMS ratio (%) n = 1” value was determined as 7.4% and the “ASMS ratio (%) n = 2” value is given as −16.1%.
Regarding `CCOc1cncc(-c2ccc(CN3CCN(c4ccc(C(=O)NS(=O)(=O)c5ccc(NCCSc6ccccc6)c(C(F)(F)F)c5)cc4)CC3)c(CC)c2)c1` [B2R050-01, 4-[4-[[4-(5-Ethoxypyridin-3-yl)-2-ethylphenyl]methyl]piperazin-1-yl]-N-[4-(2-phenylsulfanylethylamino)-3-(trifluoromethyl)phenyl]sulfonylbenzamide], the “ASMS ratio (%)” value by setting is: (n = 1) 0.0%; (n = 2) 0.0%.
`CCOc1cncc(-c2ccc(CN3CCN(c4ccc(C(=O)NS(=O)(=O)CC56CC7CC(CC(C7)C5)C6)cc4)CC3)c(OC)c2)c1` [B2A054-01, N-(1-Adamantylmethylsulfonyl)-4-[4-[[4-(5-ethoxypyridin-3-yl)-2-methoxyphenyl]methyl]piperazin-1-yl]benzamide]: under “AS-MS, mixture library, Bcl-2”, the “ASMS ratio (%) n = 1” value is 17.5% and the “ASMS ratio (%) n = 2” value was −0.9%.
For `CCOc1cccc(-c2cc(CN3CCN(c4ccc(C(=O)Nc5ccc(OC)cc5)cc4)CC3)cc(OC(F)(F)F)c2)c1` [B1O063-01, 4-[4-[[3-(3-Ethoxyphenyl)-5-(trifluoromethoxy)phenyl]methyl]piperazin-1-yl]-N-(4-methoxyphenyl)benzamide], under setting [2], the “ASMS ratio (%) n = 1” value turned out to be 3.5% and the “ASMS ratio (%) n = 2” value was −4.1%.
As for `CCOc1cncc(-c2cc(C(=O)N3CCN(c4ccc(C(=O)NS(=O)(=O)CC56CC7CC(CC(C7)C5)C6)cc4)CC3)cc(C(F)(F)F)c2)c1` [B2A040-01, N-(1-Adamantylmethylsulfonyl)-4-[4-[3-(5-ethoxypyridin-3-yl)-5-(trifluoromethyl)benzoyl]piperazin-1-yl]benzamide], where the note is “AS-MS, mixture library, Bcl-2”, the “ASMS ratio (%) n = 1” value stood at 0.0% and the “ASMS ratio (%) n = 2” value came to 0.0%.
Turning to `CCOc1cccc(-c2ccc(CN3CCN(c4ccc(C(=O)Nc5ccc(OC)cc5)nn4)CC3)c3ccccc23)c1` [B1O091-01], under setting [2], the “ASMS ratio (%) n = 1” value is 4.5% and the “ASMS ratio (%) n = 2” value was found to be 2.2%.
Regarding `CCOc1cccc(-c2ccc(CN3CCN(c4ccc(C(=O)NS(=O)(=O)C(C)(C)C)cc4)CC3)cc2F)c1` [B2L051-01, N-tert-Butylsulfonyl-4-[4-[[4-(3-ethoxyphenyl)-3-fluorophenyl]methyl]piperazin-1-yl]benzamide], the “ASMS ratio (%)” value by setting is: (n = 1) 0.0%; (n = 2) 0.0%.
Regarding `CCOc1cncc(-c2ccc(C(C)N3CCN(c4ccc(C(=O)N(C)CC56CC7CC(CC(C7)C5)C6)cc4)CC3)cc2)c1` (stereo not shown) [B3A098-01, N-(1-Adamantylmethyl)-4-[4-[1-[4-(5-ethoxypyridin-3-yl)phenyl]ethyl]piperazin-1-yl]-N-methylbenzamide], under setting [2], the “ASMS ratio (%) n = 1” value came out at 0.6% and the “ASMS ratio (%) n = 2” value is 3.0%.
`CCOc1cccc(-c2ccc(CN3CCN(c4ccc(C(=O)NS(=O)(=O)CC56CC7CC(CC(C7)C5)C6)cc4)CC3)cc2F)c1` [B2A051-01]: where the note is “AS-MS, mixture library, Bcl-2”, the “ASMS ratio (%) n = 1” value is listed as −0.3% and the “ASMS ratio (%) n = 2” value was found to be 3.6%.
For `CCOc1cccc(C#Cc2ccccc2CN2CCN(c3ccc(C(=O)Nc4ccc(OC)cc4)nn3)CC2)c1` [B1O095-01, 6-[4-[[2-[2-(3-Ethoxyphenyl)ethynyl]phenyl]methyl]piperazin-1-yl]-N-(4-methoxyphenyl)pyridazine-3-carboxamide], under setting [2], the “ASMS ratio (%) n = 1” value was 2.7% and the “ASMS ratio (%) n = 2” value is on record as 0.0%.
On to `CCOc1cncc(-c2cc(CN3CCN(c4ccc(C(=O)NS(=O)(=O)c5ccc(NCCSc6ccccc6)c([N+](=O)[O-])c5)nn4)CC3)cc(OC(F)(F)F)c2)c1` [B2Q090-01, 6-[4-[[3-(5-Ethoxypyridin-3-yl)-5-(trifluoromethoxy)phenyl]methyl]piperazin-1-yl]-N-[3-nitro-4-(2-phenylsulfanylethylamino)phenyl]sulfonylpyridazine-3-carboxamide], for which, where the note is “AS-MS, mixture library, Bcl-2”, the “ASMS ratio (%) n = 1” value stood at 21.8% and the “ASMS ratio (%) n = 2” value came out at 13.2%.
As to `CCOc1cncc(C#Cc2ccccc2CN2CCN(c3ccc(C(=O)NS(=O)(=O)C(C)(C)C)cc3)CC2)c1` [B2L070-01, N-tert-Butylsulfonyl-4-[4-[[2-[2-(5-ethoxypyridin-3-yl)ethynyl]phenyl]methyl]piperazin-1-yl]benzamide], the “ASMS ratio (%)” value reads like this: (n = 1) 4.9%; (n = 2) −4.2%.
With `CCOc1cccc(-c2ccc(C(=O)N3CCN(c4ccc(C(=O)NS(=O)(=O)C(C)(C)C)nn4)CC3)c3ccccc23)c1` [B2L013-01, N-tert-Butylsulfonyl-6-[4-[4-(3-ethoxyphenyl)naphthalene-1-carbonyl]piperazin-1-yl]pyridazine-3-carboxamide], the “ASMS ratio (%)” value runs as follows: (n = 1) 0.0%; (n = 2) 0.0%.
Regarding `CCOc1cncc(-c2ccc(C(=O)N3CCN(c4ccc(C(=O)N(C)CC56CC7CC(CC(C7)C5)C6)cc4)CC3)cc2F)c1` [B3A028-01, N-(1-Adamantylmethyl)-4-[4-[4-(5-ethoxypyridin-3-yl)-3-fluorobenzoyl]piperazin-1-yl]-N-methylbenzamide], under setting [2], the “ASMS ratio (%) n = 1” value was found to be 9.8% and the “ASMS ratio (%) n = 2” value is recorded as 1.6%.
Regarding `CCOc1cccc(-c2csc(CN3CCN(c4ccc(C(=O)NS(=O)(=O)c5ccc(NCCSc6ccccc6)c(C(F)(F)F)c5)nn4)CC3)c2)c1` [B2R093-01, 6-[4-[[4-(3-Ethoxyphenyl)thiophen-2-yl]methyl]piperazin-1-yl]-N-[4-(2-phenylsulfanylethylamino)-3-(trifluoromethyl)phenyl]sulfonylpyridazine-3-carboxamide], the “ASMS ratio (%)” value is given as 56.5% (n = 1) and 0.0% (n = 2).
On the same counts, the results for `CCOc1cccc(-c2cc(C(=O)N3CCN(c4ccc(C(=O)NS(=O)(=O)C(C)(C)C)nn4)CC3)cc(C(C)(C)C)c2)c1` [B2L015-01, 6-[4-[3-tert-Butyl-5-(3-ethoxyphenyl)benzoyl]piperazin-1-yl]-N-tert-butylsulfonylpyridazine-3-carboxamide] are 0.0% and 0.0%.
Turning to “6-[4-[4-(5-Ethoxypyridin-3-yl)thiophene-2-carbonyl]piperazin-1-yl]-N-propylpyridazine-3-carboxamide [B1M082-01]”, under setting [2], the “ASMS ratio (%) n = 1” value is reported as 0.0% and the “ASMS ratio (%) n = 2” value is 0.0%.
`CCOc1cncc(-c2ccc(C(=O)N3CCN(c4ccc(C(=O)NS(=O)(=O)c5ccc(NCCSc6ccccc6)c([N+](=O)[O-])c5)nn4)CC3)cc2F)c1` [B2Q006-01, 6-[4-[4-(5-Ethoxypyridin-3-yl)-3-fluorobenzoyl]piperazin-1-yl]-N-[3-nitro-4-(2-phenylsulfanylethylamino)phenyl]sulfonylpyridazine-3-carboxamide]: for the setting “AS-MS, mixture library, Bcl-2”, the “ASMS ratio (%) n = 1” value was 9.5% and the “ASMS ratio (%) n = 2” value came out at 2.2%.
